{"source": "patent US20100034867A1", "about": "“DRUG DELIVERY COATING FOR USE WITH A MEDICAL DEVICE AND METHODS OF TREATING VASCULAR INJURY” (ATRIUM MEDICAL CORPORATION, priority 2005, published 2010)", "key": {"rabbit illiac arteries [1]": {"tested_on": "rabbit illiac arteries", "assay": "Methylprednisolone/Cilostazol/Paclitaxel/Taxus study: stents implanted in rabbit iliac arteries for 28 days, histomorphic and histopathologic analyses", "conditions": "for reduction in neointima (in words): coated stents; for EEL Area / IEL Area / Intimal Area / Lumen Area / Stenosis: ALPHA-3 coated Atrium Flyer stent, mean ± SD"}, "rabbit illiac arteries [2]": {"tested_on": "rabbit illiac arteries", "conditions": "in vivo, 28 days"}, "rabbit illiac arteries [3]": {"tested_on": "rabbit illiac arteries", "conditions": "in vivo", "procedure": "The Atrium Flyer is compared with bare metal stents, the Atrium Flyer coated with ALPHA-3 without drugs, and Cypher™ drug eluting stent. Histomorphic and histopathologic analyses are then performed."}, "rabbit's iliac vessel": {"tested_on": "rabbit's iliac vessel", "assay": "Rapamycin drug eluting stents in rabbit iliac vessel (inflammation, overlapping stents)", "format": "in vivo", "excerpt": "The inventors postulate, based on these animal study results, that one consequence of these types of drugs is retarded endothelial cell coverage, and that current drug eluting stents promote more chronic inflammation than would normally be present with a non drug eluting bare metal stent."}, "rabbit iliacs": {"tested_on": "rabbit iliacs", "assay": "Local delivery of calcineurin inhibiting compounds after vascular injury in rabbit iliacs", "format": "in vivo", "excerpt": "Studies in rabbit iliacs following vascular injury conducted by and/or on behalf of the inventors show the benefits of using calcineurin inhibiting compounds like Tacrolimus, Cyclosporin A (CsA) and Cyclosporin derivatives, in small animals like the rat, and in rabbits. […] Such vascular injury and sirolimus medicated inflammation can be characterized as having excessive giant cell formation and esinophil propagation."}}, "note": "Like-named read-outs stand apart in the source and are kept apart here."}
{"smiles": "O=C1CCc2cc(OCCCCc3nnnn3C3CCCCC3)ccc2N1", "note": "[Cilostazol]", "values": [{"measurement": "reduction in neointima (in words)", "setting": "rabbit illiac arteries [1]", "value": "No reduction in neointima"}, {"measurement": "Fibrin Score", "setting": "rabbit illiac arteries [2]", "value": 0}]}
{"smiles": "C[C@H]1C[C@@H]2[C@H]([C@@H](O)C[C@@]3(C)[C@H]2CC[C@]3(O)C(=O)CO)[C@@]2(C)C=CC(=O)C=C12", "note": "[Methylprednilsolone]", "values": [{"measurement": "EEL Area", "setting": "rabbit illiac arteries [1]; high dose", "value": "5.50 ± 0.26", "unit": "mm^2"}, {"measurement": "IEL Area", "setting": "rabbit illiac arteries [1]; high dose", "value": "5.25 ± 0.24", "unit": "mm^2"}, {"measurement": "Intimal Area", "setting": "rabbit illiac arteries [1]; high dose", "value": "1.165 ± 0.231", "unit": "mm^2"}, {"measurement": "Lumen Area", "setting": "rabbit illiac arteries [1]; high dose", "value": "4.08 ± 0.21", "unit": "mm^2"}, {"measurement": "Stenosis", "setting": "rabbit illiac arteries [1]; high dose", "value": "22.2 ± 1.4", "unit": "%"}, {"measurement": "EEL Area", "setting": "rabbit illiac arteries [1]; low dose", "value": "5.90 ± 0.92", "unit": "mm^2"}, {"measurement": "IEL Area", "setting": "rabbit illiac arteries [1]; low dose", "value": "5.62 ± 0.90", "unit": "mm^2"}, {"measurement": "Intimal Area", "setting": "rabbit illiac arteries [1]; low dose", "value": "1.054 ± 0.923", "unit": "mm^2"}, {"measurement": "Lumen Area", "setting": "rabbit illiac arteries [1]; low dose", "value": "4.42 ± 0.82", "unit": "mm^2"}, {"measurement": "Stenosis", "setting": "rabbit illiac arteries [1]; low dose", "value": "21.5 ± 4.7", "unit": "%"}, {"measurement": "EEL Area", "setting": "rabbit illiac arteries [1]; mid-dose", "value": "5.68 ± 0.34", "unit": "mm^2"}, {"measurement": "IEL Area", "setting": "rabbit illiac arteries [1]; mid-dose", "value": "5.40 ± 0.30", "unit": "mm^2"}, {"measurement": "Intimal Area", "setting": "rabbit illiac arteries [1]; mid-dose", "value": "1.247 ± 0.136", "unit": "mm^2"}, {"measurement": "Lumen Area", "setting": "rabbit illiac arteries [1]; mid-dose", "value": "4.16 ± 0.40", "unit": "mm^2"}, {"measurement": "Stenosis", "setting": "rabbit illiac arteries [1]; mid-dose", "value": "23.1 ± 2.2", "unit": "%"}, {"measurement": "reduction in neointima (in words)", "setting": "rabbit illiac arteries [1]", "value": "No reduction in neointima"}]}
{"smiles": "CC(=O)O[C@H]1C(=O)[C@@]2(C)[C@H]([C@H](OC(=O)c3ccccc3)[C@]3(O)C[C@H](OC(=O)[C@H](O)[C@@H](NC(=O)c4ccccc4)c4ccccc4)C(C)=C1C3(C)C)[C@]1(OC(C)=O)CO[C@@H]1C[C@@H]2O", "note": "[Paclitaxel]", "values": [{"measurement": "in-stent neointimal growth (in words)", "setting": "rabbit illiac arteries [1]; Atrium stents, high dose", "value": "suppresses in-stent neointimal growth at 28 days similarly to the Taxus™ Express stent"}, {"measurement": "Fibrin Score", "setting": "rabbit illiac arteries [2]", "value": 0}, {"measurement": "arterial healing compared with Taxus Express", "setting": "rabbit illiac arteries [2]", "value": "(greater) arterial healing at 28 days compared with Taxus™ Express"}]}
{"smiles": "CO[C@H]1C[C@@H]2CC[C@@H](C)[C@@](O)(O2)C(=O)C(=O)N2CCCC[C@H]2C(=O)O[C@H]([C@H](C)C[C@@H]2CC[C@@H](O)[C@H](OC)C2)CC(=O)[C@H](C)/C=C(\\C)[C@@H](O)[C@@H](OC)C(=O)[C@H](C)C[C@H](C)/C=C/C=C/C=C/1C", "note": "[Sirolimus]", "values": [{"measurement": "arterial healing compared with Taxus Express", "setting": "rabbit illiac arteries [1]; Atrium stents, high dose", "value": "(greater) arterial healing at 28 days compared with Taxus™ Express"}, {"measurement": "tolerability of the coated stent", "setting": "rabbit illiac arteries [3]", "value": "well tolerated, producing no adverse reaction"}, {"measurement": "inflammatory response around the drug eluting stent", "setting": "rabbit's iliac vessel; rabbit iliacs", "value": "presence of numerous giant cells and esinophils"}, {"measurement": "inflammation induced by the overlapping drug coating", "setting": "rabbit's iliac vessel; two separate drug eluting stents overlapping in rabbit iliac vessel", "value": "increases nearly two fold"}]}
{"smiles": "C=CC[C@@H]1/C=C(\\C)C[C@H](C)C[C@H](OC)[C@H]2O[C@@](O)(C(=O)C(=O)N3CCCC[C@H]3C(=O)O[C@H](/C(C)=C/[C@@H]3CC[C@@H](O)[C@H](OC)C3)[C@H](C)[C@@H](O)CC1=O)[C@H](C)C[C@@H]2OC", "note": "[Tacrolimus]", "values": [{"measurement": "inflammation following vascular injury", "setting": "rabbit iliacs", "value": "effectively reduce inflammation following vascular injury"}]}
